We go through 22 compounds from patent publication US20140005163A1 (NOVARTIS AG, priority 2010, published 2014).

Test [1] deals with PKB Ser473 phosphorylation in Rat1-myr-HA-p110 beta cells. As to the kind of experiment: Reverse protein array assay, PKB Ser473 phosphorylation in Rat1-myr-p110 beta cells. The format is cell-based. The conditions noted are these: 0.5 h, pAkt Ser473, 30 minutes incubation, read-out: p-PKB IC50. In outline:
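Lysates were arrayed at four dilutions, and phospho-PKB Ser473 was quantified by relative fluorescence signal. They came from Rat1-myr-HA-p110 alpha, beta or delta cells exposed for 30 min at 37 °C to an 8-point compound series with 0.2% DMSO constant.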

The target of the next test is T1, mTOR (Homo sapiens, UniProt P42345).
T1 construct: purchased Invitrogen Corporation (Carlsbad/CA, USA) PV4753
Kind of test: Biochemical assay for m-TOR by TR-FRET. The conditions noted are these: 8 μM ATP, 400 nM GFP-4EBP1, 0.5 nM mTOR. In outline: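 mTOR (0.5 nM) was incubated at rt with ATP (8 μM final) and GFP-4EBP1 (400 nM final) in 50 mM HEPES pH 7.5, 10 mM MnCl2, 50 mM NaCl, 1 mM EGTA, 1 mM DTT. EDTA stop with Tb3+-anti-p4EBP1 [pThr46] antibody (0.5 nM); TR-FRET read 15 min later.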
(TR-FRET usually uses a lanthanide donor and a delayed reading to cut background.)

Test [2] has as its system S6 Ribosomal Protein phosphorylation Ser235/236 in TSC1 null mouse embryo fibroblast (MEF) cells. As to the kind of experiment: Reverse protein array assay, S6 Ribosomal Protein phosphorylation Ser235/236 in TSC1 null MEF cells. The format is cell-based. The conditions noted are these: 1 h, pS6 ribosomal protein Ser235/236, 60 minutes incubation, read-out: p-S6 IC50. In outline: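 TSC1−/− MEFs, seeded and held ≥20 h at 37 °C/5% CO2, were exposed to 8-step serial compound dilutions (0.02% DMSO final; DMSO vehicle control) for 60 min at 37 °C. Cells were then lysed on ice for 10 min and lysates spotted onto reverse protein array chips.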

T1 sequence (P42345 1360-2549 limits assumed): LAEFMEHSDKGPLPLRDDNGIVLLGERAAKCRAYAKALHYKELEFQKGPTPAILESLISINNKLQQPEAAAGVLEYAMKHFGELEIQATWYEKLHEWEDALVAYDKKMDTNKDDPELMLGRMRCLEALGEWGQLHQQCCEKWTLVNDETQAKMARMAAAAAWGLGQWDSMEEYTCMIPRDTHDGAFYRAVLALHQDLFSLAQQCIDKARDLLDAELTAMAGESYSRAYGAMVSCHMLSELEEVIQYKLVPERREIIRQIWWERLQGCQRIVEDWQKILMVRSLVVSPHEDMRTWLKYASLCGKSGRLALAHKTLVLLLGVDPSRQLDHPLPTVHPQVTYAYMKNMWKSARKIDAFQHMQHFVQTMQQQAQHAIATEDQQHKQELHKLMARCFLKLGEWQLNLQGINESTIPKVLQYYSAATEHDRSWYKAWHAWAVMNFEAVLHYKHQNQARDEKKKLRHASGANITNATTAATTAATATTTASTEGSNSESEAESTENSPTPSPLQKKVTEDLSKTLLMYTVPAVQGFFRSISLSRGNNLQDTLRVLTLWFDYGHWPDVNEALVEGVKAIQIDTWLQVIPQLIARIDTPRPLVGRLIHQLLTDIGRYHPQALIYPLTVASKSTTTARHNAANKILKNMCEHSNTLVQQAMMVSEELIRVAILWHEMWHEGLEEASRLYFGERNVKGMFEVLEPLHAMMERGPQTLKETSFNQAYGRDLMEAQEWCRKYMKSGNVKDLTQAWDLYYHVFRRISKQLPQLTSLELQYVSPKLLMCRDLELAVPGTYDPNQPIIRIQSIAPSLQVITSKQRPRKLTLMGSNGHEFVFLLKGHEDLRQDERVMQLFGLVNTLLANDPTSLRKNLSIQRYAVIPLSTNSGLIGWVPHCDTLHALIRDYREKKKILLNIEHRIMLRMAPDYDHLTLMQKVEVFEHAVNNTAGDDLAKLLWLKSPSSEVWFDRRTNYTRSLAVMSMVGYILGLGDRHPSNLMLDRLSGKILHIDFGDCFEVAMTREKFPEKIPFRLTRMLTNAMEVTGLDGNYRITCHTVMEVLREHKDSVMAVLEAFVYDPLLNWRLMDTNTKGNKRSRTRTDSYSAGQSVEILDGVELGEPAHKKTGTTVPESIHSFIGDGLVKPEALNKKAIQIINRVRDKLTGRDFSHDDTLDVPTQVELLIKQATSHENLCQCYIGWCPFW

Consider `Cc1nn(C)cc1-n1c(=S)n(C)c2cnc3ccc(-c4cccnc4)cc3c21` [Example 128.1, 1-(1,3-Dimethyl-1H-pyrazol-4-yl)-3-methyl-8-pyridin-3-yl-1,3-dihydro-imidazo[4,5-c]quinoline-2-thione], for which the half-inhibitory concentration (IC50) – broadly, the concentration that gives 50% inhibition – in test [1] was 27 nM; on mTOR it was 69 nM; in test [2], 9 nM.
With `COc1ncc(-c2ccc3ncc4c(c3c2)n(-c2cc(C)nn2C)c(=O)n4C)c(OC)n1` [Example 234.4, 8-(2,4-Dimethoxy-pyrimidin-5-yl)-1-(2,5-dimethyl-2H-pyrazol-3-yl)-3-methyl-1,3-dihydro-imidazo[4,5-c]quinolin-2-one], the results for the IC50 (in test [1]; on mTOR; in test [2]) were 59 nM, 187 nM and 10.1 nM, respectively.
Take `Cc1nn(C(C)C)cc1-n1c(=O)n(C)c2cnc3ccc(-c4cnc5c(c4)COC(=O)N5C)cc3c21` [Example 170, 1-(1-Isopropyl-3-methyl-1H-pyrazol-4-yl)-3-methyl-8-(1-methyl-2-oxo-1,4-dihydro-2H-pyrido[2,3-d][1,3]oxazin-6-yl)-1,3-dihydro-imidazo[4,5-c]quinolin-2-one]: the IC50 was 370 nM in test [1], 1820 nM at mTOR and 79 nM in test [2].
In the case of `CCN(CC)c1cncc(-c2ccc3ncc4c(c3c2)n(-c2cn(C)nc2C)c(=O)n4C)c1` [Example 95, 8-(5-Diethylamino-pyridin-3-yl)-1-(1,3-dimethyl-1H-pyrazol-4-yl)-3-methyl-1,3-dihydro-imidazo[4,5-c]quinolin-2-one], the IC50 in test [1] is 17 nM; on mTOR, 20 nM; in test [2], 1 nM.
Taken in the same sequence, the figures for `CCn1cc(-n2c(=O)n(C)c3cnc4ccc(-c5cnc(N)c(Cl)c5)cc4c32)c(C)n1` [Example 148.3, 8-(6-Amino-5-chloro-pyridin-3-yl)-1-(1-ethyl-3-methyl-1H-pyrazol-4-yl)-3-methyl-1,3-dihydro-imidazo[4,5-c]quinolin-2-one] were 10 nM, 12 nM and 1 nM.
Taken in the same sequence, the figures for `Cc1nn(C)cc1-n1c(=O)n(C)c2cnc3ccc(-c4ccc(N5CCCC5)nc4)cc3c21` [Example 97, 1-(1,3-Dimethyl-1H-pyrazol-4-yl)-3-methyl-8-(6-pyrrolidin-1-yl-pyridin-3-yl)-1,3-dihydro-imidazo[4,5-c]quinolin-2-one] were 17 nM, 7 nM and 3 nM.
With `[2H]C([2H])([2H])OCc1ncc(-c2ccc3ncc4c(c3c2)n(-c2cn(C)nc2C)c(=O)n4C)cc1OCC` [Example 198, 1-(1,3-Dimethyl-1H-pyrazol-4-yl)-8-(5-ethoxy-6-trideuteromethoxymethyl-pyridin-3-yl)-3-methyl-1,3-dihydro-imidazo[4,5-c]quinolin-2-one], the IC50 was found to be 37 nM in test [1], 73 nM at mTOR and 3 nM in test [2].
Taken in the same sequence, the figures for `Cc1cc(-n2c(=O)n(C)c3cnc4ccc(-c5cnc(N)c(C(F)(F)F)c5)cc4c32)n(C)n1` [Example 25.6, 8-(6-Amino-5-trifluoromethyl-pyridin-3-yl)-1-(2,5-dimethyl-2H-pyrazol-3-yl)-3-methyl-1,3-dihydro-imidazo[4,5-c]quinolin-2-one] were 15 nM, 82 nM and 1 nM.
`CCn1cc(-n2c(=O)n(C)c3cnc4ccc(-c5ccc(OC)c(OC)c5)nc4c32)c(C)n1` [Example 254, 8-(3,4-Dimethoxy-phenyl)-1-(1-ethyl-3-methyl-1H-pyrazol-4-yl)-3-methyl-1,3-dihydro-1,3,5,9-tetraaza-cyclopenta[a]naphthalen-2-one]: the IC50 was determined as 26 nM in test [1], 65 nM at mTOR and 58 nM in test [2].
Turning to `CC(C)Oc1cncc(-c2ccc3ncc4c(c3c2)n(-c2cn(C)nc2Cl)c(=O)n4C)c1` [Example 58.2, 1-(3-Chloro-1-methyl-1H-pyrazol-4-yl)-8-(5-isopropoxy-pyridin-3-yl)-3-methyl-1,3-dihydro-imidazo[4,5-c]quinolin-2-one], the IC50 in test [1] amounted to 14 nM; on mTOR it was 3 nM; in test [2] it was 4 nM.
For `CNc1ncc(-c2ccc3ncc4c(c3c2)n(-c2cn(C)nc2Cl)c(=O)n4C)cc1C` [Example 119, 1-(3-Chloro-1-methyl-1H-pyrazol-4-yl)-3-methyl-8-(5-methyl-6-methylamino-pyridin-3-yl)-1,3-dihydro-imidazo[4,5-c]quinolin-2-one], the IC50 is 10 nM in test [1], below 3 nM on mTOR and 1 nM in test [2].
For `CCOCc1cc(-c2ccc3ncc4c(c3c2)n(-c2cn(C(C)C)nc2C)c(=O)n4C)cnc1N` [Example 166.3, 8-(6-Amino-5-ethoxymethyl-pyridin-3-yl)-1-(1-isopropyl-3-methyl-1H-pyrazol-4-yl)-3-methyl-1,3-dihydro-imidazo[4,5-c]quinolin-2-one] the same measures were 119 nM, 55 nM and 5 nM.
Regarding `CCNC(=O)c1cc(-c2ccc3ncc4c(c3c2)n(-c2cn(C(C)C)nc2C)c(=O)n4C)cnc1N` [Example 227, 2-Amino-N-ethyl-5-[1-(1-isopropyl-3-methyl-1H-pyrazol-4-yl)-3-methyl-2-oxo-2,3-dihydro-1H-imidazo[4,5-c]quinolin-8-yl]-nicotinamide], the figures for the IC50 (in test [1]; on mTOR; in test [2]) were 220 nM, 161 nM and 12 nM, respectively.
For `CCNc1ncc(-c2ccc3ncc4c(c3c2)n(-c2cn(C)nc2C)c(=O)n4C)cc1C(F)(F)F` [Example 145.2, 1-(1,3-Dimethyl-1H-pyrazol-4-yl)-8-(6-ethylamino-5-trifluoromethyl-pyridin-3-yl)-3-methyl-1,3-dihydro-imidazo[4,5-c]quinolin-2-one] the same measures were 13 nM, 16 nM and 0.94 nM.
For the compound `CCn1cc(-n2c(=O)n(C)c3cnc4ccc(-c5cncc(C(C)(C)C#N)c5)cc4c32)c(C)n1` [Example 220.2, 2-{5-[1-(1-Ethyl-3-methyl-1H-pyrazol-4-yl)-3-methyl-2-oxo-2,3-dihydro-1H-imidazo[4,5-c]quinolin-8-yl]-pyridin-3-yl}-2-methyl-propionitrile], the IC50 in test [1] came out at 32 nM; on mTOR, 32 nM; in test [2], 3 nM.
As for `COc1ccc(-c2ccc3ncc4c(c3c2)n(-c2cn(C)nc2C)c(=S)n4C)cc1OC` [Example 128.2, 8-(3,4-Dimethoxy-phenyl)-1-(1,3-dimethyl-1H-pyrazol-4-yl)-3-methyl-1,3-dihydro-imidazo[4,5-c]quinoline-2-thione], the IC50 in test [1] was determined as 6 nM; at mTOR, 12 nM; in test [2] it was 1 nM.
Regarding `Cc1nn(C(C)C)cc1-n1c(=O)n(C)c2cnc3ccc(-c4cnc(Cl)c(N)c4)cc3c21` [Example 152.1, 8-(5-Amino-6-chloro-pyridin-3-yl)-1-(1-isopropyl-3-methyl-1H-pyrazol-4-yl)-3-methyl-1,3-dihydro-imidazo[4,5-c]quinolin-2-one], the half-maximal inhibitory concentration (IC50) came to 6 nM in test [1], 13 nM at mTOR and 2 nM in test [2].
For `Cc1nn(C)cc1-n1c(=O)n(C)c2cnc3ccc(-c4cccc(NS(C)(=O)=O)c4)cc3c21` [Example 47, N-{3-[1-(1,3-dimethyl-1H-pyrazol-4-yl)-3-methyl-2-oxo-2,3-dihydro-1H-imidazo[4,5-c]quinolin-8-yl]-phenyl}-methanesulfonamide] the same measures were 196 nM, 281 nM and 127 nM.
`CNS(=O)(=O)c1cccc(-c2ccc3ncc4c(c3c2)n(-c2cn(C)nc2C)c(=O)n4C)c1` [Example 39, 3-[1-(1,3-Dimethyl-1H-pyrazol-4-yl)-3-methyl-2-oxo-2,3-dihydro-1H-imidazo[4,5-c]quinolin-8-yl]-N-methyl-benzenesulfonamide]: the IC50 amounted to 64 nM in test [1], 69 nM at mTOR and 37 nM in test [2].
For `Cc1nn(C)cc1-n1c(=O)n(C)c2cnc3ccc(-c4cnc(N)c(C(F)(F)F)c4)cc3c21` [Example 25.1, 8-(6-Amino-5-trifluoromethyl-pyridin-3-yl)-1-(1,3-dimethyl-1H-pyrazol-4-yl)-3-methyl-1,3-dihydro-imidazo[4,5-c]quinolin-2-one], the IC50 in test [1] was found to be 6 nM; at mTOR, 9 nM; in test [2], 1 nM.
As to `CNc1ncc(-c2ccc3ncc4c(c3c2)n(-c2cn(C(C)C)nc2C)c(=O)n4C)cc1C(F)(F)F` [Example 144.2, 1-(1-Isopropyl-3-methyl-1H-pyrazol-4-yl)-3-methyl-8-(6-methylamino-5-trifluoromethyl-pyridin-3-yl)-1,3-dihydro-imidazo[4,5-c]quinolin-2-one], the figures for the IC50 (in test [1]; on mTOR; in test [2]) were 12 nM, below 3 nM and 1 nM, respectively.
`Cc1nn(C)cc1-n1c(=O)n(C)c2cnc3ccc(-c4ccc(-c5ncc[nH]5)cc4)cc3c21` [Example 77, 1-(1,3-Dimethyl-1H-pyrazol-4-yl)-8-[4-(1H-imidazol-2-yl)-phenyl]-3-methyl-1,3-dihydro-imidazo[4,5-c]quinolin-2-one]: the IC50 was 8 nM in test [1], below 3 nM at mTOR and 5 nM in test [2].
